# In patent US20050256302A1, “Novel peptides having camp producing activity” (Japan Science and Technology Agency, priority 2002, published 2005):
# Where a SMILES comes first, the peptide text is derived from it. Bridges are numbered along the chain shown (N, C = ends).
# Experiments:
# LLC-PK1 cells = assay: Suppression of cell proliferation (125I-DU incorporation, cell count); assay type: cell-based, pig; details: 125I-DU incorporation and cell count
# Method: A solution of each peptide in DMEM in each concentration was added to LLC-PK1 cells, then DMEM (containing 0.1% BSA) which contained bromodeoxyuridine labeled with ^125I (^125I-DU) was added to each well and, after 5 hours, radioactivity incorporated into the nuclei was measured by a gamma-counter to measure the DNA amount synthesized as a result of cell proliferation.
# With regard to the number of proliferated cells, each solution of CRSP in DMEM in various concentrations was added to LLC-PK1 cells of 10,000 cells/well, incubation was conducted, the cells on the incubation dish was taken out by a trypsin-EDTA solution and cell numbers were counted using a counting plate.
# LLC-PK1 cells were incubated for two days in a DMEM (containing 10% of FCS) on a 24-well collagen plate, once washed with a DMEM and substituted with a DMEM (containing 10% of FCS) containing 0 and 10^−12 to 10^−6 M of CRSP followed by incubating. After 2 hours, a DMEM (containing 0.1% of BSA) containing ^125I-labeled bromodeoxyuridine was added to each well and, after 5 hours, radioactivity incorporated into the nuclei was measured by a gamma-counter whereupon the amount of DNA synthesized as a result of cell proliferation was measured.
# Similarly, LLC-PK1 cells of 10,000 cells/well were sown on a 24-well collagen plate and incubated with a DMEM (containing 10% of FCS) for 24 hours. […]
# [1] = Calcium concentration in plasma of anesthetized rats; assay type: in vivo; details: rat, 16 nmol/kg from jugular vein
# Method: CRSP corresponding to an amount of 16 nmol/kg dissolved in a physiological saline solution was administered at a time within a short period from jugular vein of rat under an anesthetized condition and calcium concentration in the plasma and blood pressure were measured. The results are shown in FIG. 13 (changes in calcium concentration in blood by administration of CRSP) and FIG. 14 (changes in blood pressure by administration of CRSP).
# CRSP corresponding to the amount of 16 nmol/kg dissolved in a physiological saline solution was administered at a time within short period from […] of rat under an anesthetized condition.
smiles,measurement,setting,value
CSCC[C@H](NC(=O)[C@H](CCCCN)NC(=O)[C@@H](NC(=O)[C@@H]1CCCN1C(=O)[C@H](CC(C)C)NC(=O)[C@H](CC(C)C)NC(=O)[C@H](CC(N)=O)NC(=O)[C@H](CO)NC(=O)[C@H](CCCNC(=N)N)NC(=O)[C@@H](NC(=O)[C@H](CCSC)NC(=O)[C@H](CO)NC(=O)CNC(=O)[C@H](CO)NC(=O)[C@H](CCCNC(=N)N)NC(=O)[C@H](CO)NC(=O)[C@H](CC(C)C)NC(=O)[C@H](CC(C)C)NC(=O)CNC(=O)[C@@H](NC(=O)[C@H](CC(C)C)NC(=O)[C@H](CCCNC(=N)N)NC(=O)[C@H](Cc1c[nH]cn1)NC(=O)[C@@H](NC(=O)[C@H](CCSC)NC(=O)[C@@H]1CSSC[C@H](NC(=O)[C@@H](N)CO)C(=O)N[C@@H](CC(N)=O)C(=O)N[C@@H]([C@@H](C)O)C(=O)N[C@@H](C)C(=O)N[C@@H]([C@@H](C)O)C(=O)N1)[C@@H](C)O)C(C)C)C(C)C)[C@@H](C)O)C(=O)NCC(=O)N[C@@H](Cc1ccccc1)C(=O)N[C@@H](CCCCN)C(=O)N[C@H](C(=O)N[C@@H](Cc1ccccc1)C(=O)NCC(N)=O)C(C)C [CRSP] (H-SCNTATCMTHRLVGLLSRSGSMVRSNLLPTKMGFKVFG-NH2; disulfide 2-7),growth of LLC-PK1 cells,LLC-PK1 cells,suppressing the growth of LLC-PK1 cells
same,calcium concentration in plasma,[1],transiently lowered
